Measured values taken from patent US10899759B2, “Positive allosteric modulators of the muscarinic acetylcholine receptor M1” (Vanderbilt University, priority 2016, dated 2021).

Target: T1, human mAChR M1 (Homo sapiens, UniProt P11229)
T1 construct: host or cells: CHO-K1
T1 sequence (P11229 1-460): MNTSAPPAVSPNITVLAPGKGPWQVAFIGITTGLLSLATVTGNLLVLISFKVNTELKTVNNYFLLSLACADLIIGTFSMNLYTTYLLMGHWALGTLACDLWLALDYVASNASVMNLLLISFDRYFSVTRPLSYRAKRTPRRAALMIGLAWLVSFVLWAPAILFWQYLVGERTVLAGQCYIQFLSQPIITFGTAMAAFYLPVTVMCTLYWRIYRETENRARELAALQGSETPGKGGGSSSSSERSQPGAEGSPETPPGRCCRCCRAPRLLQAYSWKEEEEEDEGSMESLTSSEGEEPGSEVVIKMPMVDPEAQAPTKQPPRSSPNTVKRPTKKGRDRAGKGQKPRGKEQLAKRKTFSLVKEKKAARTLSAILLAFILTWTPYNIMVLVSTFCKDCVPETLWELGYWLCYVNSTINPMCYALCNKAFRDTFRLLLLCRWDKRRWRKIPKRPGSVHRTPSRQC
Assay: mAChR M1 cell-based functional assay (calcium mobilization, Fluo-4, FDSS)
Details: CHO-K1 cells stably expressing hM1; for Emax: EC20 acetylcholine response, read-out: Human M1 Emax; for EC50: positive allosteric modulator activity as increase in the EC20 acetylcholine response
Outline: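 CHO-K1 cells stably expressing muscarinic receptor, loaded with Fluo-4; 11-point 1:3 compound series added and calcium flux read over 300 s at 1 Hz. Agonism from direct calcium rise, PAM activity as potentiation of EC20 acetylcholine, antagonism as decrease of EC80 acetylcholine; four-parameter logistic fits.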

Compound | Emax [%] | EC50 [nM]
Cn1ccc(-c2ccc(Cc3cc(C(=O)NC[C@@H]4CCCO4)nc4c3ccn4C)cn2)n1 [Compound 158, 1-methyl-4-[[6-(1-methylpyrazol-3-yl)-3-pyridyl]methyl]-N-[[(2S)-tetrahydrofuran-2-yl]methyl]pyrrolo[2,3-b]pyridine-6-carboxamide] | 72.1 | 360
Cn1ccc(-c2ccc(Cc3cc(C(=O)N[C@@H]4CCC[C@H]4O)nc4c3ccn4C)cc2)n1 [Compound 42, N-[(1R,2R)-2-hydroxycyclopentyl]-1-methy1-4-[[4-(1-methylpyrazol-3-yl)phenyl]methyl]pyrrolo[2,3-b]pyridine-6-carboxamide] | 74.3 | 370
Cn1ncc2c(Cc3ccc(-c4cscn4)cc3)cc(C(=O)N[C@H]3CC[C@@H]3O)nc21 [Compound 31, N-[(1S,2S)-2-hydroxycyclobutyl]-1-methyl-4-[(4-thiazol-4-ylphenyl)methyl]pyrazolo[3,4-b]pyridine-6-carboxamide] | 79.7 | 3830
COCCNC(=O)c1cc(Cc2ccc(-c3ccn(C)n3)cc2)c2ccsc2n1 [Compound 99, N-(2-methoxyethyl)-4-[[4-(1-methylpyrazol-3-yl)phenyl]methyl]thieno[2,3-b]pyridine-6-carboxamide] | 62.8 | 3330
Cn1ncc2c(Cc3ccc(-c4cscn4)cc3)cc(C(=O)NC3CCOCC3)nc21 [Compound 1, 1-methyl-N-tetrahydropyran-4-yl-4-[(4-thiazol-4-ylphenyl)methyl]pyrazolo[3,4-b]pyridine-6-carboxamide] | 69 | 1420
Cn1ccc(-c2ccc(Cc3cc(C(=O)NC4(C)COC4)nc4c3ccn4C)cn2)n1 [Compound 152, 1-methyl-N-(3-methyloxetan-3-yl)-4-[[6-(1-methylpyrazol-3-yl)-3-pyridyl]methyl]pyrrolo[2,3-b]pyridine-6-carboxamide] | 45.5 | > 10000
CC1COCCC1NC(=O)c1cc(Cc2ccc(-n3cccn3)cc2)c2ccsc2n1 (stereo not shown) [Compound 75] | 60.7 | 490
Cn1ncc2c(Cc3ccc(-n4cccn4)cc3)cc(C(=O)N[C@H]3CCOC[C@@H]3O)nc21 [Compound 7, N-[(3R,4S)-3-hydroxytetrahydropyran-4-yl]-1-methyl-4-[(4-pyrazol-1-ylphenyl)methyl]pyrazolo[3,4-b]pyridine-6-carboxamide] | 89 | 200
CCn1ccc2c(Cc3ccc(-n4cccn4)cc3)cc(C(=O)N[C@H]3CCOC[C@@H]3O)nc21 [Compound 9, 1-ethyl-N-[(3R,4S)-3-hydroxytetrahydropyran-4-yl]-4-[(4-pyrazol-1-ylphenyl)methyl]pyrrolo[2,3-b]pyridine-6-carboxamide] | 64.7 | 20
Cc1nc(-c2ccc(Cc3cc(C(=O)NC4CCOCC4(C)C)nc4sccc34)cc2)co1 (stereo not shown) [Compound 133, N-(3,3-dimethyltetrahydropyran-4-yl)-4-[[4-(2-methyloxazol-4-yl)phenyl]methyl]thieno[2,3-b]pyridine-6-carboxamide] | 62.3 | 2320
Cn1ccc(-c2ccc(Cc3cc(C(=O)NC4CC(F)C4)nc4sccc34)cc2)n1 (stereo not shown) [Compound 97, N-(3-fluorocyclobutyl)-4-[[4-(1-methylpyrazol-3-yl)phenyl]methyl]thieno[2,3-b]pyridine-6-carboxamide] | 65.9 | 140

More lines, in order of falling EC50, values ahead:

Emax [%] | EC50 [nM] | Compound
67.2 | 2660 | Cn1ccc(-c2ccc(Cc3cc(C(=O)N[C@H]4CCCC[C@@H]4O)nc4sccc34)cn2)n1 [Compound 101, N-[(1S,2S)-2-hydroxycyclohexyl]-4-[[6-(1-methylpyrazol-3-yl)-3-pyridyl]methyl]thieno[2,3-b]pyridine-6-carboxamide]
60.4 | 1500 | Cn1ccc2c(Cc3ccc(-c4nccs4)cc3)cc(C(=O)N[C@H]3CC[C@@H]3O)nc21 [Compound 63, N-[(1S,2S)-2-hydroxycyclobutyl]-1-methyl-4-[(4-thiazol-2-ylphenyl)methyl]pyrrolo[2,3-b]pyridine-6-carboxamide]
61.2 | 1390 | Cn1ccc2c(Cc3ccc(-c4nccs4)cc3)cc(C(=O)NC3CCOCC3(C)C)nc21 (stereo not shown) [Compound 67]
83.6 | 840 | Cc1nc(-c2ccc(Cc3cc(C(=O)N[C@H]4CC[C@@H]4O)nc4c3ccn4C)cc2)co1 [Compound 57, N-[(1S,2S)-2-hydroxycyclobutyl]-1-methy1-4-[[4-(2-methyloxazol-4-yl)phenyl]methyl]pyrrolo[2,3-b]pyridine-6-carboxamide]
62 | 690 | COCC(C)NC(=O)c1cc(Cc2ccc(-n3cccn3)cc2)c2ccsc2n1 (stereo not shown) [Compound 86, N-(2-methoxy-1-methyl-ethyl)-4-[(4-pyrazol-1-ylphenyl)methyl]thieno[2,3-b]pyridine-6-carboxamide]
76.7 | 670 | Cn1ccc2c(Cc3ccc(-c4cscn4)cc3)cc(C(=O)NC3CCOC(C)(C)C3)nc21 (stereo not shown) [Compound 25, N-(2,2-dimethyltetrahydropyran-4-yl)-1-methyl-4-[(4-thiazol-4-ylphenyl)methyl]pyrrolo[2,3-b]pyridine-6-carboxamide]
72.3 | 430 | O=C(NC1CC2(COC2)C1)c1cc(Cc2ccc(-n3cccn3)cc2)c2ccsc2n1 [Compound 80, N-(2-oxaspiro[3.3]heptan-6-yl)-4-[(4-pyrazol-1-ylphenyl)methyl]thieno[2,3-b]pyridine-6-carboxamide]
86.6 | 200 | Cn1ncc2c(Cc3ccc(-n4cccn4)cc3)cc(C(=O)N[C@H]3CCCC[C@@H]3O)nc21 [Compound 8, N-[(1S,2S)-2-hydroxycyclohexyl]-1-methyl-4-[(4-pyrazol-1-ylphenyl)methyl]pyrazolo[3,4-b]pyridine-6-carboxamide]
65.7 | 110 | Cn1ccc(-c2ccc(Cc3cc(C(=O)N[C@H]4CCCC[C@@H]4O)nc4c3ccn4C)cn2)n1 [Compound 155, N-[(1S,2S)-2-hydroxycyclohexyl]-1-methyl-4-[[6-(1-methylpyrazol-3-yl)-3-pyridyl]methyl]pyrrolo[2,3-b]pyridine-6-carboxamide]
80.1 | 100 | Cc1nc(-c2ccc(Cc3cc(C(=O)N[C@H]4CCCC[C@@H]4O)nc4c3ccn4C)cc2)co1 [Compound 52, N-[(1S,2S)-2-hydroxycyclohexyl]-1-methyl-4-[[4-(2-methyloxazol-4-yl)phenyl]methyl]pyrrolo[2,3-b]pyridine-6-carboxamide]
73.9 | 30 | Cn1cc(-c2ccc(Cc3cc(C(=O)N[C@H]4CCCC[C@@H]4O)nc4c3ccn4C)cn2)cn1 [Compound 46, N-[(1S,2S)-2-hydroxycyclohexyl]-1-methyl-4-[[6-(1-methylpyrazol-4-yl)-3-pyridyl]methyl]pyrrolo[2,3-b]pyridine-6-carboxamide]
38.6 | 10 | Cn1cc(-c2ccc(Cc3cc(C(=O)NC4CCOCC4)nc4sccc34)cn2)cn1 [Compound 114, 4-[[6-(1-methylpyrazol-4-yl)-3-pyridyl]methyl]-N-tetrahydropyran-4-yl-thieno[2,3-b]pyridine-6-carboxamide]
